Laboratory results from patent publication US7135472B2, “3-Heterocyclic benzylamide derivatives as potassium channel openers” (Bristol-Myers Squibb Company, priority 2002, dated 2006).

Experiments:
[1] = target: T1, mKCNQ2 channels (Mus musculus, UniProt Q9Z351); assay: KCNQ whole-cell patch-clamp recordings, HEK 293 stable cell line expressing mKCNQ2 channels; assay type: cell-based; conditions: mKCNQ2 currents, HEK 293, whole-cell patch clamp; for Imax (%): Hill fit maximum current; for EC50: at −40 mV
T1 construct: expressed in transfected cells
Method: Whole-cell patch-clamp recordings were made from an HEK 293 stable cell line expressing mKCNQ2 channels, maintained in culture for 1–2 days. Patch pipettes had initial resistances of 2.5–4 MΩ. Currents were recorded with an EPC-9 amplifier (HEKA, Lambrecht, Germany) controlled with software (Pulse, HEKA) run on a standard lab PC. Series resistance compensation was used during current recording, and set at 80%. The series resistance (R) and cell capacitance (C) were determined electronically by subtracting the capacitive currents at the onset and offset of a 5 mV voltage step. The cancellation of whole-cell capacitive transients was virtually complete in all cells. Analog current signals were low-pass filtered at 2.9 kHz using a four-pole Bessel filter −3 dB) and stored on a local network server computer at a sampling rate of […]. All recordings were performed at room temperature (20–22° C.). The pipette solution contained (mM): KCl, 150; CaCl2, 2.5; EGTA, 5; MgCl2, 1; HEPES, 10; pH to 7.3 with KOH, and Osmolality of 290–300 mOsm. The extracellular solution contained (mM): NaCl, 140; KCl, 2.5; CaCl2, 2.5; MgCl2, 1; glucose, 10; HEPES, 10; pH to 7.3 with NaOH, and Osmolality of 305–310 mOsm
Concentration response data were generated by measuring the difference in the steady-state amplitude of current in the presence of compound at the end of a 600 ms voltage-clamp step from a holding potential of −80 mV. The concentration-response data were fitted with Hill-type equations: I=Imax/(1+EC50/[A]^nH), where I is the steady-state current at a given concentration of agonist [A]; and Imax, EC50 and nH are parameters estimated from the curve fit. In some cases the concentration-response data were fitted with equations consisting of the sum of two Hill-type components. Current-voltage (I/V) relationships for agonist-evoked currents were obtained by performing 600 ms voltage steps (−110 mV to +40 mV) in the absence and presence of agonist.

[2] = tested on: peripheral mononeuropathy nerve injury-induced tactile allodynia; assay: Chung model of neuropathic pain (Chung surgery and von Frey test); assay type: in vivo, male Sprague Dawley rats; conditions: i.v., rat, von Frey thresholds over 90 min post-drug, % MPE (Drug AUC) − % MPE (Vehicle AUC)
Method: To test agents for activity against peripheral mononeuropathy nerve injury-induced tactile allodynia, male Sprague Dawley rats (wt. 120–160 g) were surgically prepared with unilateral tight ligation of spinal nerves L5 and L6 following the method of Kim and Chung (Kim S. H., Chung J. M. (1992) Pain, September; 50(3):355–63). After 3–4 weeks recovery, paw withdrawal to light touch was assessed as described by Chaplan et al. (Chaplan S. R., et al., (1994) J. Neurosci Methods, July; 53(1):55–63). In brief, rats are placed in a plastic cage with a wire mesh bottom and allowed to acclimate for 15–30 minutes, until cage exploration and grooming stops. […] After acclimation, baseline von Frey thresholds were assessed for the injured hindpaw at −15 min. […] Following drug administration, von Frey thresholds are measured at 15, 30, 60 and 90 min. Data were analyzed by a 2-way repeated measures analysis of variance followed by Dunnett's test (p<0.05). […]
Reversal of neuropathic pain behavior may be expressed as a percentage (0–100%) of the maximum possible effect, over and above the vehicle effects. […]
For example, a compound which immediately reversed neuropathic pain behavior to normal levels, such that animals only responded to the highest von Frey filament (15 g), and maintained normal levels through out the post-drug testing period (90 min) would be calculated as Δ%MPE=100%.

Row | Structure (SMILES) | Imax (%) [1] [%] | EC50 [1] [µM] | AUC (Δ % MPE) ([2]; 100 mg/kg) | AUC (Δ % MPE) ([2]; 3 mg/kg)
1 | C[C@H](NC(=O)CCCc1ccccc1)c1cccc(-c2cccnc2)c1 [Example 17, (S)-4-Phenyl-N-[1-(3-pyridin-3-yl-phenyl)-ethyl]-butyramide] | 172 | 0.0007 | – | –
2 | NCC1(CC(=O)O)CCCCC1 [Gabapentin, gabapentin, reference compound] | – | – | 50 (100 mg/kg, i.v.) Δ % MPE | –
3 | C[C@H](NC(=O)/C=C/c1ccccc1F)c1cccc(-n2cccn2)c1 [Example 4, (S)-3-(2-Fluoro-phenyl)-N-[1-(3-pyrazol-1-yl-phenyl)-ethyl]-acrylamide] | 1158 | 0.123 | – | 24 (3 mg/kg, i.v.) Δ % MPE
4 | C[C@H](NC(=O)C=Cc1ccccc1)c1cccc(-n2cccn2)c1 [Example 31, (S)-3-Phenyl-N-[1-(3-pyrazol-1-yl-phenyl)-ethyl]-acrylamide] | 3364 | 1.24 | – | –
